In US20240391930A1, “SPIROCYCLIC BICYCLIC MODULATORS OF CHOLESTEROL BIOSYNTHESIS AND THEIR USE FOR PROMOTING REMYELINATION” (GENENTECH, INC., priority 2021, published 2024):

Legend:
human EBP = target: T1, human EBP (Homo sapiens, UniProt Q15125); assay: hEBP SPA competition binding assay ([3H]-Ifenprodil)
T1 construct: expressed in transfected cells; host or cells: human embryonic kidney 293 cells
Protocol: Membrane preparation: To examine compound binding affinity to EBP, human EBP was overexpressed in human embryonic kidney 293 cells. Cell pellet was lysed in 10 times weight binding buffer (50 mM Tris, 5 mM MgCl2, 0.1 mM EDTA, lx protease inhibitor cocktail, pH 7.5) on ice by using a dounce homogenizer. The solution was centrifuged at 25,000 g for 50 min at 4° C. The membrane pellet was re-suspended in binding buffer and run through a 25⅝ gauge needle. After checking the concentration by Bradford assay, the whole cell membrane solution was adjusted to 20 mg/mL and stored at −80° C.
This binding solution was centrifuged at 400 g for 5 minutes to collect the bead/membrane mixture. After re-suspending the pellet in binding buffer at the same calculated volume with 0.01% BSA (Sigma A1933), the bead/membrane mixture was added in 384-well low-binding surface plate (PerkinElmer Cat #6057480) at 25 µl/well. Radioligand at different concentrations with and without the non-radio-labeled same ligand 5 uM (for nonspecific and total signal, respectively) was added to bring final volume to 50 µl/well with DMSO concentration at 0.1%. At equilibrium (3 hours after ligand addition), radiometric signal CPM was counted by using a Microbeta2 microplate counter (Perkinelmer).
A pre-incubated bead/membrane mixture was added in compound plate at 0.3 mg beads and […] membrane per well. […] At equilibrium (3 hours after ligand addition), radiometric signal was counted as described above. The percentage inhibition of compound at each testing concentration was calculated by normalizing each condition's CPM readout to full block (5 uM non-radiolabeled ligand) and non-block (DMSO) control conditions. Compound binding inhibition IC50 was determined by nonlinear regression fitting of percentage inhibition plot against compound concentration. Compound Ki was calculated from the equation Ki=IC50/(1+[L]/Kd), which [L] was radioligand concentration used in assay. All tests had N bigger or equal to 2.

[1] = tested on: zymostenol accumulation in EpiSC-derived OPCs (EBP); assay: GC/MS-based sterol profiling (zymostenol accumulation); type: cell-based; conditions: Mus musculus, 24 hours, 8 doses from 0.15 nM to 333 nM, read-out: Zymostenol GCMS EC50
Summary of the method: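 Mouse epiblast stem cell-derived OPCs plated at 100,000 cells/well in growth-factor-free N2B27 and treated 24 h. Sterols extracted by modified Folch wash, silylated with BSTFA, and quantified by electron-impact GC/MS against cholesterol-d7 (zymostenol ion 458). Zymostenol normalised to 24 h 100 nM positive-control reference.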

T1 sequence (Q15125 whole entry): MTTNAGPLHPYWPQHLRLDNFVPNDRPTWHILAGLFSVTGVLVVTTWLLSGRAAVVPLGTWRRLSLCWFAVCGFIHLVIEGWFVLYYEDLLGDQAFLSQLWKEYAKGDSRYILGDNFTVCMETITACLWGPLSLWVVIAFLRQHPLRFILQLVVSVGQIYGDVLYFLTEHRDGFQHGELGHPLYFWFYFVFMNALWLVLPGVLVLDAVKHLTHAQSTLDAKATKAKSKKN

Structure (SMILES)	Ki (human EBP)	EC50 [1]
CC(C)n1nc(-c2cccc(C(F)(F)F)n2)cc1[C@H]1[C@@H]2C[C@@H](N3CCC4(C3)CS(=O)(=O)C4)C[C@@H]21 (single isomer, unassigned) [Compound 11]	36 nM	7.2 nM
CC(C)n1nc(-c2cccc(C(F)(F)F)n2)cc1[C@H]1[C@@H]2C[C@H](N3CCC4(C3)CS(=O)(=O)C4)C[C@@H]21 (single isomer, unassigned) [Compound 12]	17 nM	3.7 nM
CC(C)n1nc(-c2cncc(C(F)(F)F)c2)nc1[C@H]1[C@@H]2C[C@@H](N3CCC4(C3)CS(=O)(=O)C4)C[C@@H]21 (single isomer, unassigned) [Compound 16]	20 nM	6.7 nM
CC(C)n1nc(-c2cncc(C(F)(F)F)c2)nc1[C@H]1[C@@H]2C[C@H](N3CCC4(C3)CS(=O)(=O)C4)C[C@@H]21 (single isomer, unassigned) [Compound 17]	67 nM	42 nM
CC(C)n1nc(-c2ccnc(C(F)(F)F)c2)cc1[C@H]1[C@@H]2C[C@@H](N3CCC4(C3)CS(=O)(=O)C4)C[C@@H]21 (single isomer, unassigned) [Compound 18]	30 nM	2.3 nM
CC(C)n1nc(-c2ccnc(C(F)(F)F)c2)cc1[C@H]1[C@@H]2C[C@H](N3CCC4(C3)CS(=O)(=O)C4)C[C@@H]21 (single isomer, unassigned) [Compound 19]	16 nM	2.5 nM
CC(C)n1nc(-c2cc(C(F)(F)F)ccn2)cc1[C@H]1[C@@H]2C[C@@H](N3CCC4(C3)CS(=O)(=O)C4)C[C@@H]21 (single isomer, unassigned) [Compound 20]	62 nM	1.2 nM
CC(C)n1nc(C(F)(F)F)cc1[C@H]1[C@@H]2C[C@@H](N3CCC4(C3)CS(=O)(=O)C4)C[C@@H]21 (single isomer, unassigned) [Compound 22]	30 nM	12 nM
CC(C)n1nc(C(F)(F)F)cc1[C@H]1[C@@H]2C[C@H](N3CCC4(C3)CS(=O)(=O)C4)C[C@@H]21 (single isomer, unassigned) [Compound 23]	13 nM	12 nM
CC(C)n1nc(-c2cccc(C(F)(F)F)n2)cc1[C@H]1[C@@H]2C[C@@H](N3CCC4(CC3)CS(=O)(=O)C4)C[C@@H]21 (single isomer, unassigned) [Compound 47]	19 nM	1.9 nM
CC(C)n1nc(-c2cccc(C(F)(F)F)n2)cc1[C@H]1[C@@H]2C[C@H](N3CCC4(CC3)CS(=O)(=O)C4)C[C@@H]21 (single isomer, unassigned) [Compound 48]	15 nM	10 nM
CC(C)n1nc(-c2ccnc(C(F)(F)F)n2)cc1[C@H]1[C@@H]2C[C@@H](N3CCC4(CC3)CS(=O)(=O)C4)C[C@@H]21 (single isomer, unassigned) [Compound 49]	24 nM	2.7 nM
CC(C)n1nc(-c2ccnc(C(F)(F)F)n2)cc1[C@H]1[C@@H]2C[C@H](N3CCC4(CC3)CS(=O)(=O)C4)C[C@@H]21 (single isomer, unassigned) [Compound 50]	18 nM	20 nM
CC(C)n1nc(-c2ccnc(C(F)(F)F)n2)cc1[C@H]1[C@@H]2C[C@H](N3CCC4(C3)CS(=O)(=O)C4)C[C@@H]21 [Compound 15, 6-((1R,3r,5S,6r)-6-(1-Isopropyl-3-(2-(trifluoromethyl)pyrimidin-4-yl)-1H-pyrazol-5-yl)bicyclo[3.1.0]hexan-3-yl)-2-thia-6-azaspiro[3.4]octane 2,2-dioxide]	19 nM	3.2 nM
CC(C)n1nc(-c2ccnc(C(F)(F)F)n2)cc1[C@H]1[C@@H]2C[C@@H](N3CCC4(C3)CS(=O)(=O)C4)C[C@@H]21 [Compound 28, 6-((1R,3s,5S,6r)-6-(1-isopropyl-3-(2-(trifluoromethyl)pyrimidin-4-yl)-1H-pyrazol-5-yl)bicyclo[3.1.0]hexan-3-yl)-2-thia-6-azaspiro[3.4]octane 2,2-dioxide]	22 nM	6 nM
C=C(c1cc([C@H]2[C@@H]3C[C@H](N4CCC5(C4)CS(=O)(=O)C5)C[C@@H]32)n(C(C)C)n1)C(F)(F)F [Compound 31, 6-((1R,3r,5S,6r)-6-(1-Isopropyl-3-(3,3,3-trifluoroprop-1-en-2-yl)-1H-pyrazol-5-yl)bicyclo[3.1.0]hexan-3-yl)-2-thia-6-azaspiro[3.4]octane 2,2-dioxide]	37 nM	7.1 nM
CC(C)n1nc(C2(C(F)(F)F)CC2)cc1[C@H]1[C@@H]2C[C@H](N3CCC4(C3)CS(=O)(=O)C4)C[C@@H]21 [Compound 32, 6-((1R,3r,5S,6r)-6-(1-Isopropyl-3-(1-(trifluoromethyl)cyclopropyl)-1H-pyrazol-5-yl)bicyclo[3.1.0]hexan-3-yl)-2-thia-6-azaspiro[3.4]octane 2,2-dioxide]	23 nM	5.3 nM

Second part, the molecule after the results:

Ki (human EBP)	EC50 [1]	Structure (SMILES)
38 nM	1.81 nM	CC(C)n1nc(-c2cccc(C(F)(F)F)c2)cc1[C@H]1[C@@H]2C[C@@H](N3CCC4(C3)CS(=O)(=O)C4)C[C@@H]21 (single isomer, unassigned) [Compound 2]
31 nM	3 nM	CC(C)n1nc(-c2cncc(C(F)(F)F)c2)cc1[C@H]1[C@@H]2C[C@H](N3CCC4(C3)CS(=O)(=O)C4)C[C@@H]21 (single isomer, unassigned) [Compound 4]
26 nM	2.7 nM	CC(C)n1nc(-c2cncc(C(F)(F)F)c2)cc1[C@H]1[C@@H]2C[C@H](N3CC[C@@]4(CCS(=O)(=O)C4)C3)C[C@@H]21 (single isomer, unassigned) [Compound 9*]
43 nM	3.1 nM	CC(C)n1nc(-c2cc(C(F)(F)F)ccn2)cc1[C@H]1[C@@H]2C[C@H](N3CCC4(C3)CS(=O)(=O)C4)C[C@@H]21 (single isomer, unassigned) [Compound 21]
30 nM	1.8 nM	CCn1nc(-c2cncc(C(F)(F)F)c2)cc1[C@H]1[C@@H]2C[C@@H](N3CCC4(C3)CS(=O)(=O)C4)C[C@@H]21 (single isomer, unassigned) [Compound 24]
26 nM	0.36 nM	CCn1nc(-c2cncc(C(F)(F)F)c2)cc1[C@H]1[C@@H]2C[C@H](N3CCC4(C3)CS(=O)(=O)C4)C[C@@H]21 (single isomer, unassigned) [Compound 25]
26 nM	2.9 nM	CC(C)n1nc(-c2cncc(C(F)(F)F)c2)cc1[C@H]1[C@@H]2C[C@@H](N3CCC4(CC3)CS(=O)(=O)C4)C[C@@H]21 (single isomer, unassigned) [Compound 38]
26 nM	5.9 nM	CC(C)n1nc(-c2cncc(C(F)(F)F)c2)cc1[C@H]1[C@@H]2C[C@H](N3CCC4(CC3)CS(=O)(=O)C4)C[C@@H]21 (single isomer, unassigned) [Compound 40]
51 nM	55 nM	CC(C)n1nc(-c2cncc(C(F)(F)F)c2)cc1[C@H]1[C@@H]2C[C@@H](N3CC4(C3)CS(=O)(=O)C4)C[C@@H]21 (single isomer, unassigned) [Compound 98*]
58 nM	86 nM	CC(C)n1nc(-c2cncc(C(F)(F)F)c2)cc1[C@H]1[C@@H]2C[C@H](N3CC4(C3)CS(=O)(=O)C4)C[C@@H]21 (single isomer, unassigned) [Compound 99*]
22 nM	3.6 nM	CC(C)n1nc(-c2ccc(C(F)(F)F)cc2)cc1[C@H]1[C@@H]2C[C@H](N3CCC4(C3)CS(=O)(=O)C4)C[C@@H]21 [Compound 5, 6-((1R,3r,5S,6r)-6-(1-Isopropyl-3-(4-(trifluoromethyl)phenyl)-1H-pyrazol-5-yl)bicyclo[3.1.0]hexan-3-yl)-2-thia-6-azaspiro[3.4]octane 2,2-dioxide]
19 nM	29 nM	CC(C)n1nc(-c2cnc(C(F)(F)F)nc2)cc1[C@H]1[C@@H]2C[C@H](N3CCC4(C3)CS(=O)(=O)C4)C[C@@H]21 [Compound 6, 6-((1R,3r,5S,6r)-6-(1-Isopropyl-3-(2-(trifluoromethyl)pyrimidin-5-yl)-1H-pyrazol-5-yl)bicyclo[3.1.0]hexan-3-yl)-2-thia-6-azaspiro[3.4]octane 2,2-dioxide]
